The values that follow come from patent US20050118310A1, “Formulations of compounds derived from natural sources and their use with irradiation for food preservation” (priority 2001, published 2005).

Assay [1] has as its system E. coli. Description: Irradiation sensitivity (D10) of E. coli in ground beef. The class given is cell-based, Escherichia coli (ATCC 25922).
Assay [2] concerns Salmonella typhi. Put plainly: Example 4 irradiation sensitivity (D10) of S. typhi in ground beef. The note with it: carvacrol 1.15%, thymol 1.60%. The class given is cell-based. As for the experimental part:
(§1) Irradiation treatments of ground beef samples for D10 and shelf life determination were performed using UC-15B irradiator (MDS-Nordion International Inc., Kanata, ON, Canada) equipped with a ^60 Co source at a dose rate of 14.42 kGy/h). Irradiation doses used for D10 determination were ranged from 0.25 to 0.55 kGy for E. coli, from 0.50 to 2.0 kGy for S. typhi, and from 0.5 to 2.5 kGy for the mixture of indigenous microorganisms of ground beef. The shelf life study was performed on samples irradiated at 0.30, 0.85, and 1.75 kGy for E. coli, S. typhi, and the mixture of indigenous microorganisms of ground beef, respectively. For each active compound concentration tested, a group of non-irradiated samples sened as a control. For D10 determination, samples were analysed immediately after irradiation. For shelf life studies, samples were stored at 4° C. and analysed periodically.
(§2) Microbial analysis was performed by homogenising the samples for 2 mn in sterile peptone water (0.1%) using a Lab-blender 400 stomacher (Laboratory Equipment, London, UK). […]
(§3) The kinetics of bacteria destruction by irradiation with or without the food additives was evaluated by linear regression. Bacterial counts (log CFU/ml) were plotted against irradiation doses or active compounds concentration and D10 values were calculated using the PROC REG procedure of SAS (SAS Institute, Cary, N.C., USA). […]

Assay [3] relates to S. typhi. Description: Shelf life study, S. typhi in ground beef irradiated at 0.85 kGy. The class given is cell-based, Salmonella typhi. The note with it: stored at 4° C., thymol 1.6%. On the procedure:
as §1
(§4) Microbial analysis was performed by homogenising the samples for 2 mn in sterile peptone water (0.1%) using a Lab-blender 400 stomacher (Laboratory Equipment, London, UK). From this mixture, serial dilutions were prepared and appropriate ones were pour-plated in tryptic soy agar (TSA) (Difco, Laboratories, Detroit, Mich., USA) and incubated at 35° C., 24 hours for the numeration of E. coli and S. typhi. For the ground beef broth, the incubation was performed on Plate Count Agar (PCA; Difco) at 35° C. for 48 h for the numeration mesophilic bacteria, and at 7° C. for 10 days for the numeration of psychrotrophic bacteria. Enterobacteriaceae were numerated on Violet Red Bile Glucose Agar (VRBGA; Difco) 35° C. for 48 hours.
(§5) A shelf life study was undertaken to evaluate the radiation sensitivity during refrigerated storage conditions. Ground beef samples contaminated with E. coli, S. typhi, or a mixture of indigenous micro-organisms were irradiated in presence or absence of selected active compounds. Due to the differences in sensitivity between the micro-organisms under study, the following irradiation doses were used: 0.30 kGy for E. coli, 0.85 kGy for S. typhi, and 1.75 kGy for the mixture of indigenous bacteria. The irradiation doses selected corresponded to the irradiation dose needed to produce 3 log CFU reduction in bacterial population in the control sample (without active compounds).

The test system of assay [4] is Mixture of indigenous bacteria. Put plainly: Example 4 irradiation sensitivity (D10) of indigenous bacteria of ground beef. The class given is cell-based. To be noted: thymol […], trans-cinnamaldehyde […]. On the procedure:
as §1, §2, §3

Assay [5] deals with mixture of indigenous microorganisms of ground beef (mesophilic and psychrotrophic bacteria). Description: Shelf life study, indigenous micro-organisms of ground beef, statements for mesophilic and psychrotrophic bacteria together. The class given is cell-based. To be noted: for reduction of bacterial counts by irradiation: control 3 log CFU; for storage time before a bacterial count of approximately 6 log is reached: meat treated with formulation in conjunction with irradiation, about 8 days with irradiation alone. On the procedure:
as §1, §4, §5
(§6) The shelf life study in ground beef contaminated with the mixture of indigenous microorganisms of ground beef was conducted by evaluating mesophilic, psychrotrophic and total Enterobacteriaceae in the samples. […] Irradiation reduced the bacterial counts by various degrees depending on the type of active compound used: 3 log CFU reduction for control (without active compounds), 3.5 and more than 5 log CFU reduction for samples containing thymol and trans-cinnamaldehyde, respectively. […] Bacterial counts in both sarnples remained below detectable levels even after 44 days. […] A similar effect was also observed during storage for irradiated samples containing thymol as compared to samples without thymol. Between day 5 and day 15, a difference of 2 to 3 log CFU was observed between the two groups of samples.

Assay [6] deals with mesophilic bacteria. Put plainly: Shelf life study, indigenous micro-organisms of ground beef, mesophilic count. The assay is classed as cell-based. The note with it: for shelf life period: 4° C., thymol […]. As for the experimental part:
as §1, §4, §5, §6

Assay [7] concerns psychrotrophic bacteria. Description: Shelf life study, indigenous micro-organisms of ground beef, psychrotrophic count. The assay is classed as cell-based. On the procedure: as §1, §4
A shelf life study was undertaken to evaluate the radiation sensitivity during refrigerated storage conditions. Ground beef samples contaminated with E. coli, S. typhi, or a mixture of indigenous micro-organisms were irradiated in presence or absence of selected active compounds. […]

Where [8] appears, read: ground beef, air, 4° C., carvacrol 1.0% alone or with ascorbic acid 0.5% and/or tetrasodium pyrophosphate 0.1%.
[9] abbreviates: under air, trans-cinnamaldehyde […].
Setting [10] is: ground beef irradiated at 1.75 kGy, stored at 4° C., trans-cinnamaldehyde […].
Where [11] appears, read: ground beef irradiated at 1.75 kGy, thymol […], trans-cinnamaldehyde […].
Setting [12] is: trans-cinnamaldehyde alone (no irradiation), stored at 4° C.

Marks after values point to notes of the source that are not given here.

Consider `Cc1ccc(C(C)C)cc1O` [Carvacrol, carvacrol], for which, in assay [1] (setting [8]), the “D10(kGy)” value is 0.057 ± 0.0015^a kGy and the “irradiation dose necessary to completely eliminate E. coli” value was found to be 0.3 kGy. Also, the “factor by which the irradiation dose necessary to completely eliminate E. coli is lower than in the absence of active compounds” value in assay [1] (ground beef, air, 4° C., carvacrol 1.0% alone or with tetrasodium pyrophosphate 0.1%) is on record as 2.3. Moreover, in assay [1] (vs control, negative = protective effect, ground beef, air, 4° C., carvacrol 1.0% alone or with ascorbic acid 0.5% and/or tetrasodium pyrophosphate 0.1%), the “Increase in Sensitivity” value amounted to 55.5%. In addition, in assay [2], the “D10(kGy)” value was found to be 0.316 kGy. Also, in assay [3] (carvacrol 1.15%), the “days of storage after which complete inhibition was produced” value worked out at 22 days.
For `O=C/C=C/c1ccccc1` [Trans-cinnamaldehyde, trans-cinnamaldehyde], the “D10(kGy)” value is recorded as 0.046 ± 0.001^b* kGy in assay [1] (ground beef packed under MAP (60% O2-30% CO2-10% N2), 4° C., trans-cinnamaldehyde […]); 0.115 ± 0.004^a* kGy in assay [1] (ground beef packed under air, 4° C., trans-cinnamaldehyde […]); 0.494 kGy in assay [4]. Also, the “Increase in Sensitivity” value worked out at 46.5% in assay [1] (ground beef under MAP, trans-cinnamaldehyde […] vs control under the same atmosphere) and 8.7% in assay [1] (ground beef under air, trans-cinnamaldehyde […] vs control under the same atmosphere). Besides, the “increase in irradiation sensitivity by modification of the packaging atmosphere” value in assay [1] (ground beef, MAP vs air, both with trans-cinnamaldehyde […]) was determined as 60%. For the same compound, the “irradiation dose needed to completely eliminate E. coli from the ground beef” value is listed as 0.25 kGy in assay [1] (under MAP, trans-cinnamaldehyde […]) and 0.6 kGy in assay [1] (setting [9]). For the same compound, in assay [1] (setting [9]), the “irradiation dose to completely eliminate E. coli from ground beef” value worked out at 0.2 kGy. For the same compound, the “days for which bacterial counts remained below detectable levels” value in assay [5] (setting [10]) is at least 44 days. In addition, the “reduction of bacterial counts by irradiation” value in assay [5] (setting [11]) is listed as “more than 5 log CFU”. Besides, in assay [5], the “storage time before a bacterial count of approximately 6 log is reached” value is given as “more than 35 days”. The “days after which complete inhibition of bacterial growth resulted” value in assay [6] (setting [10]) turned out to be 3 days; in assay [7] (setting [10]), 1 days. Moreover, the “bacteria counts at day 44” value in assay [6] (setting [12]) was about 1 log CFU/g. Also, in assay [6] (without irradiation, stored at 4° C., trans-cinnamaldehyde […]), the “bacterial population reached after 36 days of storage” value stood at 1 log CFU. Moreover, in assay [7] (setting [12]), the “day of storage at which complete inhibition occurred” value was 36 days.
In the case of `Cc1ccc(C(C)C)c(O)c1` [Thymol, thymol], the “D10(kGy)” value in assay [2] was found to be 0.382 kGy; in assay [4], 0.779 kGy. In addition, the “days of storage after which complete inhibition was produced” value in assay [3] (carvacrol 1.15%) is recorded as 28 days. Also, the “bacterial counts compared with the irradiated control after 15 days of storage” value in assay [3] (carvacrol 1.15%, lower than control) is given as “sinilar in both cases”. In assay [3], the “difference between samples irradiated in presence and absence of compound at day 7” value was determined as 3 log CFU. In addition, in assay [5] (ground beef irradiated at 1.75 kGy, stored at 4° C., thymol […]), the “complete inhibition during storage” value is recorded as “no complete inhibition”. In addition, the “level of bacteria observed for irradiated samples during storage” value in assay [5] (ground beef irradiated at 1.75 kGy, stored at 4° C., thymol […], 10^7 without thymol) is on record as 10^4 CFU/g. Further, the “reduction of bacterial counts by irradiation” value in assay [5] (setting [11]) came to 3.5 log CFU. The “storage time before a bacterial count of approximately 6 log is reached” value in assay [5] is reported as 15 days. Besides, the shelf life period in assay [6] (irradiated samples (1.75 kGy), control 8 days) was determined as 23 days; in assay [6] (non-irradiated samples, control 2 days), 8 days; in assay [7] (non-irradiated samples, 4° C., thymol […], control 2 days) it was 9 days.
